Reference: patent US20030055065A1, “Tricyclic amide and urea compounds useful for inhibition of G-protein function and for treatment of proliferative diseases” (priority 1993, published 2003)
Where “and” joins values, the source holds several entries; their conditions need not be identical. Equal values may be shown once. Read-outs that look alike come from different tables or passages of the source. Marks after values point to notes of the source that are not given here.

Assays:
[1] = target: T1, farnesyl protein transferase (FPT), partially purified from rat brain (Rattus norvegicus, UniProt Q02293+Q04631); test: Inhibition of farnesyl protein transferase (transfer of [3H]farnesyl to Ras-CVLS); assay type: biochemical
T1 construct: were partially purified from rat brain by ammonium sulfate fractionation followed by Q-Sepharose
T1 sequence (Q02293 whole entry, one chain of several): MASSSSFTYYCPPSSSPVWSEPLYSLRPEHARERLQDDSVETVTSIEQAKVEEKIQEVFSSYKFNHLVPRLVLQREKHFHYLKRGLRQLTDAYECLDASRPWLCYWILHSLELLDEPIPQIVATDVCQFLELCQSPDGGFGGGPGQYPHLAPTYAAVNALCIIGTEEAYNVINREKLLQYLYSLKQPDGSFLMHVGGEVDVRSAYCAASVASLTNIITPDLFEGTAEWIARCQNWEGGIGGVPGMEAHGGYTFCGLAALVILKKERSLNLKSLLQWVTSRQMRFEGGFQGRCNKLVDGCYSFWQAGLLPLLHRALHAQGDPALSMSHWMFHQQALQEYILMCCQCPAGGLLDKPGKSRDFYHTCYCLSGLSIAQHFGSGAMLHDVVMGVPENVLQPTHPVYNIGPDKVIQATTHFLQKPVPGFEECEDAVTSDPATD
In short: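 Transfer of [3H]farnesyl onto E. coli-expressed, His6-tagged Ras-CVLS was measured after 30 min at room temperature. Radiolabelled Ras was TCA-precipitated on ice and filter-harvested, and inhibition was expressed as percent of DMSO control.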

[2] = tested on: Ras-CVLS processing in COS monkey kidney cells; test: COS cell assay: Ras-CVLS processing (Western blot); assay type: cell-based; settings: COS cells, read-out: Inhibition of Ras Processing IC50
In short: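 COS cells electroporated with Ras-CVLS (farnesyl transferase substrate) cDNA, with drug-containing fresh medium added at 24 h and cells examined at 48 h. TCA-precipitated cellular protein was resolved by SDS gel and immunoblotted with anti-p21 Ras monoclonal and HRP anti-rat IgG to monitor Ras processing.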

[3] = tested on: T24-BAG4 human bladder carcinoma cells expressing an activated H-ras gene; test: Cell Mat Assay: tumor cell colony inhibition (tIC50); assay type: cell-based; settings: inhibition of tumor cell growth
In short: (§1)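 Serial compound dilutions added 24 h after planting T24-BAG4 cells onto a mat of normal cells, then 14 d colony growth; monolayers glutaraldehyde-fixed and tumor cells X-Gal stained. tIC50 and mIC50 from microscope counts of colonies, cells per colony and mat cell density.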

[4] = tested on: Normal human HEPM fibroblasts; test: Cell Mat Assay: density of mat cells (mIC50); assay type: cell-based
In short: as §1

[5] = tested on: A431 (human epidermal carcinoma); test: In vivo anti-tumor study, A431; set-up: species or system athymic nu/nu female mice; concentration or dose not given beside the values; settings: s.c. tumor A431; po, BID, 1-6, ×4
[6] = tested on: SW620 (human colon adenocarcinoma [lymph node metastasis]); test: In vivo anti-tumor study, SW620; set-up: species or system athymic nu/nu female mice; percent inhibition of tumor growth relative to vehicle controls: concentration or dose not given beside the values; settings: po; for percent inhibition of tumor growth relative to vehicle controls: s.c. tumor SW-620, BID, 1-5, ×4; for inhibition in vivo at 100 mg/kg: Mus musculus, SW-620, po; for inhibition in vivo at 100 mg/kg / Average % Tumor Inhibition: SW620 tumor, 10/wk, x4
[7] = tested on: C-f-1 (mouse fibroblast transformed with c-fos oncogene); test: In vivo anti-tumor study, C-f-1; set-up: species or system athymic nu/nu female mice; concentration or dose not given beside the values; settings: s.c. tumor C-f-1; po, BID, 1-5, ×4
[8] = target: T2, geranylgeranyl protein transferase (GGPT) I (Rattus norvegicus, UniProt P53610+Q04631); test: Inhibition of geranylgeranyl protein transferase I (Ras-CVLL as acceptor); assay type: biochemical; settings: enzyme inhibition
T2 construct: were partially purified from rat brain by ammonium sulfate fractionation followed by Q-Sepharose
T2 sequence (P53610 whole entry, one chain of several): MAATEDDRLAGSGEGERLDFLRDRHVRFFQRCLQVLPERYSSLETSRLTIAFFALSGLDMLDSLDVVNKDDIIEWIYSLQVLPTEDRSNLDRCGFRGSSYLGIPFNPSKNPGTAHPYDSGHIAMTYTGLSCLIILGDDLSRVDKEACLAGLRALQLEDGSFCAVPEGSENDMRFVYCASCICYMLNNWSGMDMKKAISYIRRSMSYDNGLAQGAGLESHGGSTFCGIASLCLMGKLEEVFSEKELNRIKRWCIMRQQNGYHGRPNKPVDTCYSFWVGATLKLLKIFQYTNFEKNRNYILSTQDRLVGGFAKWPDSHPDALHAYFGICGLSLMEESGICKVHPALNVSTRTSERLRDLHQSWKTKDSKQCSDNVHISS
Excerpt: 1. In vitro enzyme assays: Inhibition of farnesyl protein transferase and geranylgeranyl protein transferase.
Both farnesyl protein transferase (FPT) and geranylgeranyl protein transferase (GGPT) I were partially purified from rat brain by ammonium sulfate fractionation followed by Q-Sepharose (Pharmacia, Inc.) anion exchange chromatography essentially as described by Yokoyama et al (Yokoyama, K., et al., (1991), A protein geranylgeranyltransferase from bovine brain: Implications for protein prenylation specificity, Proc. Natl. Acad. Sci USA 88: 5302-5306, the disclosure of which is incorporated herein by reference thereto). Human farnesyl protein transferase was also expressed in E. coli, using cDNA clones encoding both the α and β subunits. The methods used were similar to those published (Omer, C. et al., (1993), Characterization of recombinant human farnesyl protein transferase: Cloning, expression, farnesyl diphosphate binding, and functional homology with yeast prenyl-protein transferases, Biochemistry 32:5167-5176). Human farnesyl protein transferase was partially-purified from the soluble protein fraction of E. coli as described above. […] Two forms of val^12-Ha-Ras protein were prepared as substrates for these enzymes, differing in their carboxy terminal sequence. One form terminated in cysteine-valine-leucine-serine (Ras-CVLS) the other in cystein-valine-leucine-leucine (Ras-CVLL). Ras-CVLS is a substrate for the farnesyl protein transferase while Ras-CVLL is a substrate for geranylgeranyl protein transferase I. The cDNAs encoding these proteins were constructed so that the proteins contain an amino-terminal extension of 6 histidine residues. Both proteins were expressed in Escherichia coli and purified using metal chelate affinity chromatography. The radiolabelled isoprenyl pyrophosphate substrates, [^3H]farnesyl pyrophosphate and [3H]geranylgeranyl pyrophosphate, were purchased from DuPont/New England Nuclear.
The geranylgeranyl protein transferase I assay was essentially identical to the farnesyl protein transferase assay described above, with two exceptions: [^3H]geranylgeranylpyrophosphate replaced farnesyl pyrophosphate as the isoprenoid donor and Ras-CVLL was the protein acceptor.

[9] = tested on: M27 (mouse Lewis lung carcinoma); test: In vivo anti-tumor study, M27; set-up: species or system athymic nu/nu female mice; settings: M27 tumor, 100 MPK, po, 10/wk
Excerpt: In vivo Anti-tumor Studies

[10] = Ras-CVLS farnesylation, partially purified rat brain FPT, read-out: FPT IC50
[11] = enzyme inhibition, read-out: FPT IC50

SMILES	IC50 [1, 10]	IC50 ([2]; Primates, COS)	IC50 ([3]; Homo sapiens)	IC50 ([4]; Homo sapiens, Fibroblast)	melting point	also measured
O=C(C(c1ccccc1)c1ccccc1)N1CCN(C2c3ccc(Cl)cc3CCc3cccnc32)CC1 (stereo not drawn) [Example 79]	2.5 µM	5.1 µM	12.5 µM	> 50 µM		IC50 [1, 11]: 2.5 µM; percent inhibition of tumor growth relative to vehicle controls [5]: 0%; percent inhibition of tumor growth relative to vehicle controls [6]: 26.7%; percent inhibition of tumor growth relative to vehicle controls [7]: 25%
O=C(Cc1ccc(Br)cc1)N1CCC(=C2c3ccc(Cl)cc3CCc3cccnc32)CC1 [Example 43]	0.6 µM	9.7 µM	25 µM	50 µM	93.3 to 94.6 °C	
CN1C(=O)CC[C@H](C(=O)N2CCC(=C3c4ccc(Cl)cc4CCc4cccnc43)CC2)[C@H]1c1ccc(F)cc1 [Example 4]	1 µM and 0.8 µM					inhibition in vivo at 100 mg/kg ([6]; 100 MPK): 2%
O=C(Cc1cccnc1)N1CCC(C2c3ccc(Cl)cc3CCc3cccnc32)CC1 (stereo not drawn) [Example 82A, 4-(8-Chloro-6,11-dihydro-5H-benzo-[5,6]cyclohepta(1,2-b]pyridin-11-yl)-1-[(3-pyridinyl)acetyl]-piperidine]					81.7 to 82 °C	inhibition in vivo at 100 mg/kg ([6]; 100 MPK): 27%
CN1CCC(CC(=O)N2CCC(=C3c4ccc(Cl)cc4CCc4c3ncc(Br)c4Cl)CC2)CC1 [Example 413]		1.5 µM	> 6.25 µM	10 µM	105 °C (dec.)	IC50 [1, 11]: 0.103 µM; IC50 [8]: > 35 µM
Nc1cnc2c(c1)CCc1cc(Cl)ccc1C2=C1CCN(C(=O)Cc2ccncc2)CC1 [Example 402]		> 10 µM	18 µM	> 25 µM	133.2 to 133.4 °C	IC50 ([1]; FPT IC50, enzyme inhibition): 1 µM
CC(=O)N1CCC(C(=O)N2CCN(C3c4ccc(Cl)cc4CCc4cccnc43)CC2)CC1 (stereo not drawn) [Example 192]	1.24 µM	4.9 µM	25 µM	> 50 µM		IC50 [8]: > 43 µM; IC50 ([3]; listed as 192 (5.65)): 37 µM; inhibition in vivo at 100 mg/kg ([6]; 100 MPK): 29%
O=C1CCC(C(=O)N2CCC(=C3c4ccc(Cl)cc4CCc4cccnc43)CC2)CC1 [Example 5]	1.7 µM	9.2 µM		> 50 µM	200 °C	IC50 [1, 11]: 1.7 µM; IC50 [8]: > 46 µM; IC50 [2]: > 12 µM; IC50 [4]: 100 µM
O=C(Cc1ccncc1)N1CCN(C2c3ccc(Cl)cc3CCc3cccnc32)CC1 (stereo not drawn) [Example 75]			2.5 µM	> 50 µM		IC50 ([1]; FPT IC50, Ras-CVLS farnesylation, partially purified rat brain FPT): 0.36 µM and 0.16 µM; Average % Tumor Inhibition ([9]; x4): 0%; percent inhibition of tumor growth relative to vehicle controls [5]: 34.5%; percent inhibition of tumor growth relative to vehicle controls [6]: 43.4%; percent inhibition of tumor growth relative to vehicle controls [7]: 20%
O=C(Cc1ccncc1)N1CCC(C2c3ccc(Cl)cc3CCc3ccc[n+]([O-])c32)CC1 (stereo not drawn) [Example 236]	1.48 µM	3.5 µM	4 µM	> 50 µM	116.7 to 117.6 °C	IC50 [8]: > 45 µM
O=C(C(c1ccccc1)c1ccccc1)N1CCC(=C2c3ccc(Cl)cc3CCc3cccnc32)CC1 [Example 42]	0.6 µM	5.8 µM	50 µM	> 50 µM	114.2 to 115.8 °C	
O=C(Cc1cccnc1)N1CCC(=C2c3ccc(Cl)cc3CCc3cc(Br)cnc32)CC1 [Example 247]	0.16 µM	> 3.9 µM		> 50 µM	92 to 93 °C	IC50 [8]: > 40 µM; IC50 ([2]; listed as 247 (5.122)): 3.5 µM
O=C(Cc1ccccc1)N1CCC(=C2c3ccc(Cl)cc3CCc3cccnc32)CC1 [Example 44]	0.8 µM	11.6 µM	25 µM	25 µM	112 to 114.6 °C	
O=C(Nc1ccccn1)N1CCN(C2c3ccc(Cl)cc3CCc3cccnc32)CC1 (stereo not drawn) [187 (6.8)]	0.95 µM					IC50 [8]: > 46 µM; IC50 [2]: 1.3 µM; IC50 [4]: > 50 µM and 50 µM; Average % Tumor Inhibition ([6]; 100 MPK, listed as Ex. 187 (6.8), 100 mg/kg): 11% and 21%
O=C(Cc1cccnc1)N1CCC(=C2c3ccc(Cl)cc3CCc3c(Cl)ccnc32)CC1 [Example 250]	0.95 µM	8.6 µM	18 µM	> 50 µM	59.8 to 63.5 °C	
O=C(Cc1ccccn1)N1CCC(=C2c3ccc(Cl)cc3CCc3cccnc32)CC1 [Example 6]	2 µM	10 µM	12.5 µM	50 µM	122 to 125 °C	
O=C(Cc1cccc([N+](=O)[O-])c1)N1CCC(=C2c3ccc(Cl)cc3CCc3cccnc32)CC1 [Example 45]	1.2 µM and 0.87 µM	4.2 µM	6.3 µM	> 50 µM	94.3 to 95.5 °C	Average % Tumor Inhibition ([9]; x3): 0%
CCC(C(=O)N1CCC(=C2c3ccc(Cl)cc3CCc3cccnc32)CC1)c1ccccc1 (stereo not drawn) [Example 48]	1.3 µM	10.7 µM	12.5 µM	25 µM	82.7 to 83.8 °C	
O=C(Cc1cccnc1)N1CCC(C2c3ccc(Cl)cc3CCc3ccc[n+]([O-])c32)CC1 (stereo not drawn) [Example 235]	3.57 µM	9.1 µM	12.5 µM	> 50 µM	61.8 to 62.3 °C	
O=C(Cc1ccc(O)c(O)c1)N1CCC(=C2c3ccc(Cl)cc3CCc3cccnc32)CC1 [Example 127]	3.5 µM and 2.7 µM		6.3 µM	> 50 µM		Average % Tumor Inhibition ([9]; x3): 22%; inhibition in vivo at 100 mg/kg ([6]; 100 MPK): 25%
Cc1ccc(CC(=O)N2CCC(=C3c4ccc(Cl)cc4CCc4cccnc43)CC2)cc1 [Example 47]	1.3 µM and 1.01 µM					IC50 [2]: 11.1 µM; IC50 [3]: 12.5 µM; IC50 [4]: > 50 µM; Average % Tumor Inhibition ([9]; x3): 19%
S=C(c1ccncc1)N1CCC(=C2c3ccc(Cl)cc3CCc3cccnc32)CC1 [Example 88]	1 µM					IC50 [2]: > 12 µM; IC50 [4]: > 50 µM; Average % Tumor Inhibition ([9]; x4): 19%; Average % Tumor Inhibition ([6]; 25 MPK, listed as Ex. 88, 25 mg/kg): 4% and 0%; Average % Tumor Inhibition ([6]; 50 MPK): 30%; Average % Tumor Inhibition ([6]; 100 MPK, listed as Ex. 88, 100 mg/kg): 43.25* % and 38% and 37% and 27.4* % and 28%
